Measured values as given in patent publication US20170202939A1, “PERSONALIZED CANCER VACCINES AND METHODS THEREFOR” (Washington University, priority 2014, published 2017).
No end group written: not given here.

How the values were obtained:
HLA-A*02:01 [1] = molecular target: T1, HLA-A*02:01 (Homo sapiens, UniProt P04439, D140Y/D185E/D98H/E176V/E277Q/G131W/G231S/I119V/I121R/I166T/I218V/L300P/L318F/N151K/N90K/P208A/P217A/Q86G/Q94H/R138H/R169H/T345S); assay: fluorescence polarization-based competitive peptide binding assay; conditions: fluorescence polarization-based competitive peptide-binding assay; high affinity log(IC50; nM) <3.7; read-out: Experimental Affinity log(IC50) (converted)
T1 construct: purchased Pure Protein, L.L.C

[2] = tested on: neoantigen-specific CD8+ T cells; assay: immune monitoring of vaccinated patients, HLA/peptide dextramer (tetramer) assay on cultured PBMC; format: in vivo, human; conditions: for Immunogenicity: AAS-directed CD8+ T cell response in vaccinated patient; for Spontaneous Immunity: pre-vaccine (naturally-occurring) CD8+ T cell response, immune monitoring assay
Protocol: Immunologic monitoring (Examples 1-10). Immunologic analysis to evaluate the kinetics and magnitude of T cell response to gp100 peptides was performed using PBMCs collected weekly (prior to vaccination and until week 21. Fresh PBMCs obtained by Ficoll-Hypaque gradient centrifugation were adjusted to 2×10^6 cells/ml in Stemline media (Sigma-Aldrich) containing 5% human AB-serum, and dispersed at 1 ml/well in 24-well plates. Cultures were set up for the gp100 peptides and the CMV pp65 peptide (positive peptide control). Cultures were pulsed with 40 μg/ml peptide and 50 U/ml IL-2 fed starting at 48 hours and every other day thereafter. On day 12 (peak of response; the inventors' unpublished observation), cultures were harvested, counted, and stained for flow cytometry analysis. To assess the antigen-specific T cell frequency, cells were stained with HLAA*0201/peptide tetramers (Beckman Coulter) for 30 minutes at room temperature, followed by addition of FITC-conjugated CD4, CD14, CD19, and CD56 and allophycocyanin-conjugated CD8 (Invitrogen) for 15 minutes at 4° C. Cells were washed and resuspended in FACS buffer, and 7AAD was added 5 minutes before analysis. Control CMV pp65-specific CD8+ T cells were detected in all CMV-seropositive patients before and after immunization. A negative HLA-A*0201/HIV gag peptide tetramer control was included. 25,000 events in the CD8+ gate were collected using a hierarchical gating strategy that included FSC/SSC and excluded 7AAD+ (dead) cells and CD4+CD14+CD19+CD56+ cells. Data were acquired and analyzed using Flow-Jo software.
To examine the kinetics and magnitude of T cell immunity to AAS peptides upon vaccination, peripheral blood mononuclear cells (PBMC) were collected prior to vaccination and weekly thereafter. The CD8+ T cell response to each peptide was analyzed using a HLA-A*02:01/AAS-peptide dextramer assay after a single round of in vitro stimulation. FIG. 30A illustrates kinetics of immune responses to neoantigens. Time is recorded in weeks (0 indicates pre-vaccination). Culture conditions and staining details are described infra. Antigen-specific numbers were calculated based on dextramer percentage and total live cell yields. Immunologic analysis to evaluate the kinetic and magnitude of T cell response to AAS-encoding and gp100-derived peptides was performed using PBMC collected weekly, starting before DC vaccination (Pre-vaccine in the figures) as described (Carreno, B. M., et al., J. Clin. Invest., 123, 3383-3394, 2013). Briefly, fresh PBMC obtained by Ficoll-Paque PLUS gradient centrifugation were cultured with 40 ug/mL peptide and IL-2 (50 U/mL). On day 10 (peak of response, unpublished data, labeled “Post-Vaccine” in the figures), neoantigen specific T cell frequencies were determined by staining with HLA-A*02:01/peptide dextramers (Immudex), followed by addition of FITC-CD4, -CD14, -CD19 (Invitrogen) and ALEXA® 488-CD56 (BD Pharmigen), APC-CD8 (Invitrogen). Cells were washed, resuspended in FACS buffer containing 7AAD. Twenty five thousand events in the CD8+ gate were collected using a hierarchical gating strategy that included FSC/SSC and excluded 7AAD-positive (dead cells) and CD4/14/19/56-positive cells. PBMC/CD8+ T cells derived from an unrelated HLA-A*02:01 patient were used as negative controls for assessing specificity of HLA-A*02:01/AAS-peptide dextramers (data not shown). Data were acquired and analyzed using Flow-Jo software. […] FIG. 30B illustrates the frequency of neoantigen specific T cells in CD8+ populations isolated directly from PBMC samples and after ex-vivo expansion using autologous DC and artificial antigen presenting cells. For dominant neoantigens TMEM48 F169L, SEC24A P469L and EXOC8 Q656, results are shown for samples obtained before vaccination (Pre-vaccine) and after 3 vaccine doses (Post-vaccine). For remaining neoantigens, results obtained with post-vaccine PBMC samples are shown. […]

HLA-A*02:01 [3] = molecular target: T2, HLA-A*02:01 (human); assay: fluorescence polarization-based competitive peptide-binding assay
T2 construct: The form of the HLA molecule in the fluorescence polarization assay is not described; also called HLA-A2

| Molecule | IC50 (HLA-A*02:01 [1]) [nM] | log(IC50, nM) (HLA-A*02:01 [3]) | Immunogenicity [2] | Spontaneous Immunity [2] | also measured |
| --- | --- | --- | --- | --- | --- |
| AVIDAYTEI | 25700 |  | No | No |  |
| CLFPQTLAA | 3390 |  | No | No |  |
| FVSALCMFL |  |  | No | No |  |
| G280-9V: HLA-A*0201-restricted gp100 melanoma antigen-derived peptide, positive control for vaccination [reference compound] |  |  |  |  | T cell response upon vaccination ([2]; post-vaccine PBMC, dextramer assay): enhanced in patients MEL21 and MEL218 and revealed in patient MEL38; pre-existing (naturally occurring) T cell immunity ([2]; pre-vaccine PBMC samples after in vitro stimulation): Two (MEL21 and MEL218) of the three patients had pre-existing immunity |
| HLYASLSRV | 1910 |  |  |  |  |
| IIGAGPAEV | 6610 |  |  |  |  |
| IMAHCILDL | 10500 |  | No | No |  |
| KLANPLPYT | 5370 |  | No | No |  |
| LLSIIFFPA | 7940 |  | No | No |  |
| LLSIVPCTV | 1230 |  | No | No |  |
| IILVAVPHV [EXOC8 Q656P AAS peptide IILVAVPHV (MEL218)] |  | 3.06 log(IC50, nM) |  |  |  |
| AVIDAYTEI (Synthetic nonamer carrying a tumor amino acid substitution) [LARP7 N515D AAS peptide AVIDAYTEI (MEL218)] |  | 4.41 log(IC50, nM) |  |  |  |
| FVSALCMFL [ARFGEF1 R782C AAS peptide FVSALCMFL (MEL38)] |  | 3.18 log(IC50, nM) |  |  |  |
| LLSIVPCTV (Synthetic nonamer carrying a tumor amino acid substitution) [GPX8 L27P AAS peptide LLSIVPCTV (MEL21)] |  | 3.09 log(IC50, nM) |  |  |  |
| KLMNIQQKL (Synthetic nonamer carrying a tumor amino acid substitution) [AKAP13 Q285K AAS peptide KLMNIQQKL (MEL38)] |  | 3.07 log(IC50, nM) |  |  |  |
| HLYASLSRV [MRPS5 P59L AAS peptide HLYASLSRV, anchor-modified at P9 (MEL218)] |  | 3.28 log(IC50, nM) |  |  |  |
| VLLRALPVL (Synthetic nonamer carrying a tumor amino acid substitution) [MRPS17 P167L AAS peptide VLLRALPVL (MEL218)] |  | 3.05 log(IC50, nM) |  |  |  |
| QTIDNIVFL (Synthetic nonamer carrying a tumor amino acid substitution) [ARFGEF1 F1637L AAS peptide QTIDNIVFL (MEL21)] |  | 3.19 log(IC50, nM) |  |  |  |
| QLSCISTYV (Synthetic nonamer carrying a tumor amino acid substitution) [OR8B3 T190I AAS peptide QLSCISTYV (MEL38)] |  | 3.1 log(IC50, nM) |  |  |  |
| IIGAGPAEV [KDM1B G394E AAS peptide IIGAGPAEV, anchor-modified at P9 (MEL21)] |  | 3.82 log(IC50, nM) |  |  |  |
| YISKCWDYA (Synthetic nonamer carrying a tumor amino acid substitution) [HSD17B7 H108Y AAS peptide YISKCWDYA (MEL38)] |  | 4.28 log(IC50, nM) |  |  |  |
| MLGEQLFPL (Synthetic nonamer carrying a tumor amino acid substitution) [PABPC1 R520Q AAS peptide MLGEQLFPL (MEL218)] |  | 2.35 log(IC50, nM) |  |  |  |

Further lines, with some results ahead:

| IC50 (HLA-A*02:01 [1]) [nM] | log(IC50, nM) (HLA-A*02:01 [3]) | Molecule | Immunogenicity [2] | Spontaneous Immunity [2] | also measured |
| --- | --- | --- | --- | --- | --- |
| 2290 |  | QLDKCSAFV | No | No |  |
| 1550 |  | QTIDNIVFL | No | No |  |
| 1120 |  | VLLRALPVL | No | No |  |
| 19100 |  | YISKCWDYA | No | No |  |
|  | 3.53 log(IC50, nM) | CLFPQTLAA [PRKCDBP S153F AAS peptide CLFPQTLAA (MEL38)] |  |  |  |
|  | 2.68 log(IC50, nM) | FLYNLLTRV (Synthetic nonamer carrying a tumor amino acid substitution) [SEC24A P469L AAS peptide FLYNLLTRV (MEL38)] |  |  |  |
|  | 3.09 log(IC50, nM) | CLNEYHLFL (Synthetic nonamer carrying a tumor amino acid substitution) [TMEM48 F169L AAS peptide CLNEYHLFL (MEL21)] |  |  |  |
|  | 3.9 log(IC50, nM) | LLSIIFFPA (Synthetic nonamer carrying a tumor amino acid substitution) [PHKA2 S264F AAS peptide LLSIIFFPA (MEL21)] |  |  |  |
|  | 2.35 log(IC50, nM) | AMFWSVPTV [TKT R438W AAS peptide AMFWSVPTV, anchor-modified at P9 (MEL21)] |  |  |  |
|  | 3.73 log(IC50, nM) | KLANPLPYT (Synthetic nonamer carrying a tumor amino acid substitution) [SMOX K499N AAS peptide KLANPLPYT (MEL218)] |  |  |  |
|  | 3.36 log(IC50, nM) | QLDKCSAFV (Synthetic nonamer carrying a tumor amino acid substitution) [UTRN Q1058K AAS peptide QLDKCSAFV (MEL38)] |  |  |  |
|  | 4.02 log(IC50, nM) | IMAHCILDL (Synthetic nonamer carrying a tumor amino acid substitution) [SRP9 I64M AAS peptide IMAHCILDL (MEL218)] |  |  |  |
